Results: PubChem BioAssay (NCI)
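Protocol summary: plate cells (96-well), add compound at 5 concentrations, incubate 48 h, interpolate endpoints linearly. Here, GI50 denotes the concentration required for 50% inhibition of growth. TGI: total growth inhibition.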

How the values were obtained:
Assay in all cases: DTP human tumour cell line panel, 48 h
SK-MEL-28 melanoma = test system: SK-MEL-28 melanoma
TK-10 renal = test system: TK-10 renal
SNB-19 CNS = test system: SNB-19 CNS
NCI-H460 lung = test system: NCI-H460 lung
HOP-62 NSCLC = test system: HOP-62 NSCLC
HT29 colon = test system: HT29 colon
LOX IMVI melanoma = test system: LOX IMVI melanoma
HOP-92 NSCLC = test system: HOP-92 NSCLC
K-562 leukemia = test system: K-562 leukemia
OVCAR-8 ovarian = test system: OVCAR-8 ovarian
CAKI-1 renal = test system: CAKI-1 renal
A549 NSCLC = test system: A549 NSCLC
A498 renal = test system: A498 renal
MDA-MB-231 breast = test system: MDA-MB-231 breast
HS 578T breast = test system: HS 578T breast
U251 CNS = test system: U251 CNS
SK-MEL-5 melanoma = test system: SK-MEL-5 melanoma
SR leukemia = test system: SR leukemia
PC-3 prostate = test system: PC-3 prostate
HCC-2998 colon = test system: HCC-2998 colon
HL-60(TB) leukemia = test system: HL-60(TB) leukemia
T-47D breast = test system: T-47D breast
OVCAR-3 ovarian = test system: OVCAR-3 ovarian
MCF7 breast = test system: MCF7 breast
SF-295 CNS = test system: SF-295 CNS
DU-145 prostate = test system: DU-145 prostate
SK-MEL-2 melanoma = test system: SK-MEL-2 melanoma
RXF 393 renal = test system: RXF 393 renal
NCI/ADR-RES ovarian = test system: NCI/ADR-RES ovarian
SK-OV-3 ovarian = test system: SK-OV-3 ovarian
HCT-15 colon = test system: HCT-15 colon
BT-549 breast = test system: BT-549 breast
UACC-62 melanoma = test system: UACC-62 melanoma
UO-31 renal = test system: UO-31 renal
SW-620 colon = test system: SW-620 colon
MALME-3M melanoma = test system: MALME-3M melanoma
UACC-257 melanoma = test system: UACC-257 melanoma
CCRF-CEM leukemia = test system: CCRF-CEM leukemia
KM12 colon = test system: KM12 colon
RPMI-8226 leukemia = test system: RPMI-8226 leukemia
OVCAR-5 ovarian = test system: OVCAR-5 ovarian
NCI-H522 lung = test system: NCI-H522 lung
COLO 205 colon = test system: COLO 205 colon
IGROV1 ovarian = test system: IGROV1 ovarian
ACHN renal = test system: ACHN renal
SF-268 CNS = test system: SF-268 CNS
NCI-H23 lung = test system: NCI-H23 lung
NCI-H226 lung = test system: NCI-H226 lung
M14 melanoma = test system: M14 melanoma
OVCAR-4 ovarian = test system: OVCAR-4 ovarian
MDA-MB-435 = test system: MDA-MB-435
EKVX NSCLC = test system: EKVX NSCLC
MOLT-4 leukemia = test system: MOLT-4 leukemia
786-0 renal = test system: 786-0 renal
SF-539 CNS = test system: SF-539 CNS
SNB-75 CNS = test system: SNB-75 CNS
HCT-116 colon = test system: HCT-116 colon
SN12C renal = test system: SN12C renal

For `O=C(O)C(O)Cc1ccccn1` (centres undefined), the TGI (SK-MEL-28 melanoma) was > 100 µM, the TGI (TK-10 renal) was > 100 µM and the TGI (SNB-19 CNS) was > 100 µM. The TGI (NCI-H460 lung) was > 100 µM, the TGI (HOP-62 NSCLC) was > 100 µM and the TGI (HT29 colon) was > 100 µM. The TGI (LOX IMVI melanoma) was > 100 µM, the TGI (HOP-92 NSCLC) was > 100 µM and the TGI (K-562 leukemia) was > 100 µM. For the same compound, the TGI (OVCAR-8 ovarian) was > 100 µM, the TGI (CAKI-1 renal) was > 100 µM and the TGI (A549 NSCLC) was > 100 µM. For the same compound, the TGI (A498 renal) was > 100 µM, the TGI (MDA-MB-231 breast) was > 100 µM and the TGI (HS 578T breast) was > 100 µM. For the same compound, the TGI (U251 CNS) was > 100 µM, the TGI (SK-MEL-5 melanoma) was > 100 µM and the TGI (SR leukemia) was > 100 µM. The TGI (PC-3 prostate) was > 100 µM, the TGI (HCC-2998 colon) was > 100 µM and the TGI (HL-60(TB) leukemia) was > 100 µM. The TGI (T-47D breast) was > 100 µM, the TGI (OVCAR-3 ovarian) was > 100 µM and the TGI (MCF7 breast) was > 100 µM. The TGI (SF-295 CNS) was > 100 µM, the TGI (DU-145 prostate) was > 100 µM and the TGI (SK-MEL-2 melanoma) was > 100 µM. The TGI (RXF 393 renal) was > 100 µM, the TGI (NCI/ADR-RES ovarian) was > 100 µM and the TGI (SK-OV-3 ovarian) was > 100 µM. For the same compound, the TGI (HCT-15 colon) was > 100 µM, the TGI (BT-549 breast) was > 100 µM and the TGI (UACC-62 melanoma) was > 100 µM. For the same compound, the TGI (UO-31 renal) was > 100 µM, the TGI (SW-620 colon) was > 100 µM and the TGI (MALME-3M melanoma) was > 100 µM. For the same compound, the TGI (UACC-257 melanoma) was > 100 µM, the TGI (CCRF-CEM leukemia) was > 100 µM and the TGI (KM12 colon) was > 100 µM. The TGI (RPMI-8226 leukemia) was > 100 µM, the TGI (OVCAR-5 ovarian) was > 100 µM and the TGI (NCI-H522 lung) was > 100 µM. For the same compound, the TGI (COLO 205 colon) was > 100 µM, the TGI (IGROV1 ovarian) was > 100 µM and the TGI (ACHN renal) was > 100 µM. The TGI (SF-268 CNS) was > 100 µM, the TGI (NCI-H23 lung) was > 100 µM and the TGI (NCI-H226 lung) was > 100 µM. The TGI (M14 melanoma) was > 100 µM, the TGI (OVCAR-4 ovarian) was > 100 µM and the TGI (MDA-MB-435) was > 100 µM. The TGI (EKVX NSCLC) was > 100 µM.
`COc1ccc2c(c1)c(-c1nc(-c3c[nH]c4ncccc34)cs1)cn2CCCCN1CCOCC1` gave a GI50 (SK-MEL-28 melanoma) of 1.85 µM, a TGI (SK-MEL-28 melanoma) of 3.4 µM and a GI50 (TK-10 renal) of 5.25 µM. The TGI (TK-10 renal) was 18 µM, the GI50 (NCI-H460 lung) was 1.99 µM and the TGI (NCI-H460 lung) was 3.9 µM. The GI50 (MOLT-4 leukemia) was 1.86 µM, the TGI (MOLT-4 leukemia) was 3.92 µM and the GI50 (HOP-62 NSCLC) was 1.91 µM. For the same compound, the TGI (HOP-62 NSCLC) was 4.08 µM, the GI50 (HT29 colon) was 2.18 µM and the TGI (HT29 colon) was 3.94 µM. It also gave a GI50 (LOX IMVI melanoma) of 1.71 µM, a TGI (LOX IMVI melanoma) of 3.19 µM and a GI50 (HOP-92 NSCLC) of 1.67 µM. The TGI (HOP-92 NSCLC) was 4.17 µM, the GI50 (786-0 renal) was 1.78 µM and the TGI (786-0 renal) was 3.3 µM. It also gave a GI50 (K-562 leukemia) of 1.95 µM, a TGI (K-562 leukemia) of 3.99 µM and a GI50 (CAKI-1 renal) of 1.8 µM. The TGI (CAKI-1 renal) was 3.79 µM, the GI50 (A549 NSCLC) was 2.23 µM and the TGI (A549 NSCLC) was 4.28 µM. It also gave a GI50 (A498 renal) of 0.217 µM, a TGI (A498 renal) of 3.17 µM and a GI50 (MDA-MB-231 breast) of 1.7 µM. For the same compound, the TGI (MDA-MB-231 breast) was 3.5 µM, the GI50 (SF-539 CNS) was 1.67 µM and the TGI (SF-539 CNS) was 3.11 µM. The GI50 (HS 578T breast) was 2.05 µM, the TGI (HS 578T breast) was 5.82 µM and the GI50 (U251 CNS) was 1.73 µM. It also gave a TGI (U251 CNS) of 3.33 µM, a GI50 (SK-MEL-5 melanoma) of 1.75 µM and a TGI (SK-MEL-5 melanoma) of 3.16 µM. For the same compound, the GI50 (SR leukemia) was 2.01 µM, the TGI (SR leukemia) was 4.65 µM and the GI50 (PC-3 prostate) was 1.75 µM. The TGI (PC-3 prostate) was 4.26 µM, the GI50 (HCC-2998 colon) was 1.91 µM and the TGI (HCC-2998 colon) was 3.7 µM. The GI50 (HL-60(TB) leukemia) was 1.94 µM, the TGI (HL-60(TB) leukemia) was 3.85 µM and the GI50 (T-47D breast) was 2.12 µM. The TGI (T-47D breast) was 6.5 µM, the GI50 (OVCAR-3 ovarian) was 1.87 µM and the TGI (OVCAR-3 ovarian) was 3.74 µM. It also gave a GI50 (MCF7 breast) of 1.56 µM, a TGI (MCF7 breast) of 3.56 µM and a GI50 (SF-295 CNS) of 1.93 µM. It also gave a TGI (SF-295 CNS) of 4.07 µM, a GI50 (SNB-75 CNS) of 1.31 µM and a TGI (SNB-75 CNS) of 2.85 µM. The GI50 (DU-145 prostate) was 3.07 µM, the TGI (DU-145 prostate) was 9.76 µM and the GI50 (SK-MEL-2 melanoma) was 1.97 µM. It also gave a TGI (SK-MEL-2 melanoma) of 3.83 µM, a GI50 (HCT-116 colon) of 1.78 µM and a TGI (HCT-116 colon) of 3.37 µM. It also gave a GI50 (RXF 393 renal) of 1.73 µM, a TGI (RXF 393 renal) of 3.38 µM and a GI50 (NCI/ADR-RES ovarian) of 2.34 µM. It also gave a TGI (NCI/ADR-RES ovarian) of 5.78 µM, a GI50 (SK-OV-3 ovarian) of 2.37 µM and a TGI (SK-OV-3 ovarian) of 5.27 µM. The GI50 (HCT-15 colon) was 1.96 µM, the TGI (HCT-15 colon) was 4.14 µM and the GI50 (BT-549 breast) was 3.74 µM. The TGI (BT-549 breast) was 15.5 µM, the GI50 (UACC-62 melanoma) was 1.87 µM and the TGI (UACC-62 melanoma) was 3.93 µM. It also gave a GI50 (UO-31 renal) of 1.43 µM, a TGI (UO-31 renal) of 3.23 µM and a GI50 (SW-620 colon) of 1.99 µM. For the same compound, the TGI (SW-620 colon) was 3.92 µM, the GI50 (MALME-3M melanoma) was 1.55 µM and the TGI (MALME-3M melanoma) was 3.34 µM. It also gave a GI50 (UACC-257 melanoma) of 2.18 µM, a TGI (UACC-257 melanoma) of 3.85 µM and a GI50 (CCRF-CEM leukemia) of 2.12 µM. For the same compound, the TGI (CCRF-CEM leukemia) was 5.1 µM, the GI50 (KM12 colon) was 1.93 µM and the TGI (KM12 colon) was 3.96 µM. For the same compound, the GI50 (RPMI-8226 leukemia) was 1.99 µM, the TGI (RPMI-8226 leukemia) was 4.72 µM and the GI50 (OVCAR-5 ovarian) was 1.99 µM. It also gave a TGI (OVCAR-5 ovarian) of 4.02 µM, a GI50 (NCI-H522 lung) of 2.34 µM and a TGI (NCI-H522 lung) of 4.31 µM. The GI50 (COLO 205 colon) was 1.85 µM, the TGI (COLO 205 colon) was 3.58 µM and the GI50 (IGROV1 ovarian) was 2.48 µM. It also gave a TGI (IGROV1 ovarian) of 8.28 µM, a GI50 (ACHN renal) of 1.79 µM and a TGI (ACHN renal) of 3.4 µM. The GI50 (SF-268 CNS) was 1.8 µM, the TGI (SF-268 CNS) was 3.93 µM and the GI50 (NCI-H23 lung) was 2.14 µM. For the same compound, the TGI (NCI-H23 lung) was 5.08 µM, the GI50 (NCI-H226 lung) was 2.46 µM and the TGI (NCI-H226 lung) was 9.91 µM. The GI50 (M14 melanoma) was 1.81 µM, the TGI (M14 melanoma) was 3.62 µM and the GI50 (OVCAR-4 ovarian) was 2.21 µM. For the same compound, the TGI (OVCAR-4 ovarian) was 5.53 µM, the GI50 (MDA-MB-435) was 1.7 µM and the TGI (MDA-MB-435) was 3.17 µM. For the same compound, the GI50 (EKVX NSCLC) was 2.66 µM, the TGI (EKVX NSCLC) was 9.69 µM and the GI50 (SN12C renal) was 1.91 µM. It also gave a TGI (SN12C renal) of 4.19 µM.
